Experiment: Clinical laboratory findings: chemistry; data mean (standard deviation)
Assay type: in vivo, healthy men
Excerpt: Data are mean (standard deviation).

## C[C@@H](N)c1cc(Cl)ccc1Cn1c(=S)[nH]c(=O)c2[nH]ccc21 [AZD4831]
5 mg fasted, 24 h
  ALP: 0.997 (0.210) µkat L^–1
  ALT: 0.397 (0.159) µkat L^–1
  AST: 0.370 (0.103) µkat L^–1
  Albumin: 42.6 (2.4) g L^–1
  Bilirubin: 12.3 (2.6) µmol L^–1
  CRP: 0.38 (0.22) mg L^–1
  Calcium: 2.36 (0.04) mmol L^–1
  Creatinine: 82.2 (10.3) µmol L^–1
  GGT: 0.288 (0.103) µkat L^–1
  Glucose: 4.69 (0.32) mmol L^–1
  Phosphate: 1.12 (0.09) mmol L^–1
  Potassium: 4.14 (0.23) mmol L^–1
  Sodium: 136.3 (0.8) mmol L^–1
  Urea: 4.66 (0.90) mmol L^–1
5 mg fasted, 48 h
  ALP: 0.989 (0.186) µkat L^–1
  ALT: 0.405 (0.142) µkat L^–1
  AST: 0.357 (0.077) µkat L^–1
  Albumin: 43.3 (2.1) g L^–1
  Bilirubin: 10.6 (2.3) µmol L^–1
  CRP: 0.48 (0.40) mg L^–1
  Calcium: 2.38 (0.04) mmol L^–1
  Creatinine: 80.9 (4.7) µmol L^–1
  GGT: 0.287 (0.105) µkat L^–1
  Glucose: 4.76 (0.32) mmol L^–1
  Phosphate: 0.99 (0.12) mmol L^–1
  Potassium: 4.23 (0.16) mmol L^–1
  Sodium: 137.5 (0.6) mmol L^–1
  Urea: 4.52 (1.08) mmol L^–1
5 mg fasted, follow up
  ALP: 1.094 (0.227) µkat L^–1
  ALT: 0.407 (0.063) µkat L^–1
  AST: 0.413 (0.097) µkat L^–1
  Albumin: 45.3 (1.3) g L^–1
  Bilirubin: 12.5 (3.3) µmol L^–1
  CRP: 1.27 (1.43) mg L^–1
  Calcium: 2.42 (0.04) mmol L^–1
  Creatinine: 84.8 (9.1) µmol L^–1
  GFR: 98 (15) mL min^–1 1.73m^–2
  GGT: 0.307 (0.093) µkat L^–1
  Glucose: 4.78 (0.68) mmol L^–1
  Phosphate: 1.11 (0.10) mmol L^–1
  Potassium: 4.32 (0.22) mmol L^–1
  Sodium: 138.4 (1.5) mmol L^–1
  Urea: 4.57 (1.29) mmol L^–1
15 mg fasted, 24 h
  ALP: 1.165 (0.364) µkat L^–1
  ALT: 0.475 (0.222) µkat L^–1
  AST: 0.394 (0.098) µkat L^–1
  Albumin: 43.2 (2.7) g L^–1
  Bilirubin: 14.5 (6.3) µmol L^–1
  CRP: 0.53 (0.28) mg L^–1
  Calcium: 2.35 (0.11) mmol L^–1
  Creatinine: 76.2 (10.7) µmol L^–1
  GGT: 0.504 (0.232) µkat L^–1
  Glucose: 4.57 (0.21) mmol L^–1
  Phosphate: 1.14 (0.14) mmol L^–1
  Potassium: 4.12 (0.24) mmol L^–1
  Sodium: 137.5 (1.0) mmol L^–1
  Urea: 4.35 (0.61) mmol L^–1
15 mg fasted, 48 h
  ALP: 1.159 (0.329) µkat L^–1
  ALT: 0.515 (0.255) µkat L^–1
  AST: 0.406 (0.116) µkat L^–1
  Albumin: 44.2 (2.6) g L^–1
  Bilirubin: 13.6 (6.0) µmol L^–1
  CRP: 0.62 (0.40) mg L^–1
  Calcium: 2.37 (0.10) mmol L^–1
  Creatinine: 75.9 (12.3) µmol L^–1
  GGT: 0.501 (0.243) µkat L^–1
  Glucose: 4.72 (0.23) mmol L^–1
  Phosphate: 1.11 (0.16) mmol L^–1
  Potassium: 4.23 (0.25) mmol L^–1
  Sodium: 138.8 (0.8) mmol L^–1
  Urea: 4.30 (0.74) mmol L^–1
15 mg fasted, follow up
  ALP: 1.240 (0.380) µkat L^–1
  ALT: 0.504 (0.193) µkat L^–1
  AST: 0.420 (0.085) µkat L^–1
  Albumin: 45.2 (3.1) g L^–1
  Bilirubin: 11.3 (5.5) µmol L^–1
  CRP: 1.37 (0.47) mg L^–1
  Calcium: 2.38 (0.14) mmol L^–1
  Creatinine: 78.4 (9.8) µmol L^–1
  GFR: 114 (12) mL min^–1 1.73m^–2
  GGT: 0.534 (0.262) µkat L^–1
  Glucose: 4.62 (0.45) mmol L^–1
  Phosphate: 1.15 (0.08) mmol L^–1
  Potassium: 4.39 (0.30) mmol L^–1
  Sodium: 136.9 (1.1) mmol L^–1
  Urea: 4.79 (1.46) mmol L^–1
45 mg fasted, 24 h
  ALP: 1.061 (0.228) µkat L^–1
  ALT: 0.329 (0.098) µkat L^–1
  AST: 0.293 (0.069) µkat L^–1
  Albumin: 41.6 (2.4) g L^–1
  Bilirubin: 12.0 (3.5) µmol L^–1
  CRP: 0.77 (0.71) mg L^–1
  Calcium: 2.34 (0.05) mmol L^–1
  Creatinine: 75.8 (7.2) µmol L^–1
  GGT: 0.315 (0.072) µkat L^–1
  Glucose: 4.90 (0.29) mmol L^–1
  Phosphate: 1.17 (0.08) mmol L^–1
  Potassium: 4.29 (0.10) mmol L^–1
  Sodium: 139.2 (1.7) mmol L^–1
  Urea: 4.25 (0.47) mmol L^–1
45 mg fasted, 48 h
  ALP: 1.097 (0.257) µkat L^–1
  ALT: 0.319 (0.095) µkat L^–1
  AST: 0.288 (0.074) µkat L^–1
  Albumin: 42.5 (2.7) g L^–1
  Bilirubin: 12.3 (3.3) µmol L^–1
  CRP: 0.58 (0.49) mg L^–1
  Calcium: 2.34 (0.05) mmol L^–1
  Creatinine: 73.2 (6.4) µmol L^–1
  GGT: 0.312 (0.064) µkat L^–1
  Glucose: 5.06 (0.19) mmol L^–1
  Phosphate: 1.12 (0.09) mmol L^–1
  Potassium: 4.18 (0.20) mmol L^–1
  Sodium: 140.9 (2.2) mmol L^–1
  Urea: 4.24 (0.55) mmol L^–1
45 mg fasted, follow up
  ALP: 1.165 (0.282) µkat L^–1
  ALT: 0.324 (0.059) µkat L^–1
  AST: 0.356 (0.054) µkat L^–1
  Albumin: 44.1 (2.6) g L^–1
  Bilirubin: 12.9 (5.6) µmol L^–1
  CRP: 2.89 (5.30) mg L^–1
  Calcium: 2.35 (0.04) mmol L^–1
  Creatinine: 74.6 (9.2) µmol L^–1
  GFR: 112 (12) mL min^–1 1.73m^–2
  GGT: 0.300 (0.052) µkat L^–1
  Glucose: 4.84 (0.54) mmol L^–1
  Phosphate: 1.12 (0.20) mmol L^–1
  Potassium: 4.18 (0.18) mmol L^–1
  Sodium: 139.5 (1.3) mmol L^–1
  Urea: 3.90 (0.63) mmol L^–1
45 mg fed, 24 h
  ALP: 0.993 (0.202) µkat L^–1
  ALT: 0.324 (0.125) µkat L^–1
  AST: 0.281 (0.048) µkat L^–1
  Albumin: 41.2 (3.8) g L^–1
  Bilirubin: 9.7 (0.6) µmol L^–1
  CRP: 0.42 (0.20) mg L^–1
  Calcium: 2.30 (0.10) mmol L^–1
  Creatinine: 71.2 (11.4) µmol L^–1
  GGT: 0.310 (0.053) µkat L^–1
  Glucose: 5.06 (0.38) mmol L^–1
  Phosphate: 1.10 (0.08) mmol L^–1
  Potassium: 4.28 (0.26) mmol L^–1
  Sodium: 139.6 (1.6) mmol L^–1
  Urea: 4.04 (0.45) mmol L^–1
45 mg fed, 48 h
  ALP: 1.004 (0.205) µkat L^–1
  ALT: 0.325 (0.119) µkat L^–1
  AST: 0.296 (0.053) µkat L^–1
  Albumin: 42.1 (3.4) g L^–1
  Bilirubin: 9.5 (1.3) µmol L^–1
  CRP: 0.42 (0.22) mg L^–1
  Calcium: 2.33 (0.07) mmol L^–1
  Creatinine: 70.9 (9.3) µmol L^–1
  GGT: 0.303 (0.051) µkat L^–1
  Glucose: 5.27 (0.13) mmol L^–1
  Phosphate: 1.09 (0.05) mmol L^–1
  Potassium: 4.27 (0.05) mmol L^–1
  Sodium: 140.1 (1.4) mmol L^–1
  Urea: 4.19 (0.41) mmol L^–1
45 mg fed, follow up
  ALP: 1.103 (0.265) µkat L^–1
  ALT: 0.364 (0.151) µkat L^–1
  AST: 0.358 (0.049) µkat L^–1
  Albumin: 44.1 (3.2) g L^–1
  Bilirubin: 9.6 (2.3) µmol L^–1
  CRP: 2.35 (3.10) mg L^–1
  Calcium: 2.34 (0.08) mmol L^–1
  Creatinine: 74.6 (5.0) µmol L^–1
  GFR: 109 (15) mL min^–1 1.73m^–2
  GGT: 0.316 (0.087) µkat L^–1
  Glucose: 5.18 (0.25) mmol L^–1
  Phosphate: 1.08 (0.11) mmol L^–1
  Potassium: 4.34 (0.20) mmol L^–1
  Sodium: 139.6 (0.6) mmol L^–1
  Urea: 4.18 (0.78) mmol L^–1
135 mg fasted, 24 h
  ALP: 1.128 (0.226) µkat L^–1
  ALT: 0.323 (0.137) µkat L^–1
  AST: 0.304 (0.076) µkat L^–1
  Albumin: 43.4 (2.4) g L^–1
  Bilirubin: 12.2 (4.3) µmol L^–1
  CRP: 0.60 (0.30) mg L^–1
  Calcium: 2.36 (0.08) mmol L^–1
  Creatinine: 83.6 (8.7) µmol L^–1
  GGT: 0.318 (0.171) µkat L^–1
  Glucose: 4.74 (0.58) mmol L^–1
  Phosphate: 1.06 (0.23) mmol L^–1
  Potassium: 4.11 (0.11) mmol L^–1
  Sodium: 139.8 (0.7) mmol L^–1
  Urea: 4.50 (0.56) mmol L^–1
135 mg fasted, 48 h
  ALP: 1.175 (0.250) µkat L^–1
  ALT: 0.325 (0.191) µkat L^–1
  AST: 0.308 (0.101) µkat L^–1
  Albumin: 43.9 (2.8) g L^–1
  Bilirubin: 11.6 (3.5) µmol L^–1
  CRP: 0.50 (0.26) mg L^–1
  Calcium: 2.37 (0.07) mmol L^–1
  Creatinine: 81.0 (9.1) µmol L^–1
  GGT: 0.325 (0.161) µkat L^–1
  Glucose: 4.75 (0.37) mmol L^–1
  Phosphate: 1.01 (0.19) mmol L^–1
  Potassium: 4.06 (0.17) mmol L^–1
  Sodium: 140.3 (1.4) mmol L^–1
  Urea: 4.24 (0.74) mmol L^–1
135 mg fasted, follow up
  ALP: 1.239 (0.208) µkat L^–1
  ALT: 0.299 (0.129) µkat L^–1
  AST: 0.332 (0.064) µkat L^–1
  Albumin: 46.0 (2.6) g L^–1
  Bilirubin: 13.1 (5.1) µmol L^–1
  CRP: 8.94 (12.69) mg L^–1
  Calcium: 2.36 (0.11) mmol L^–1
  Creatinine: 85.1 (12.7) µmol L^–1
  GFR: 104 (22) mL min^–1 1.73m^–2
  GGT: 0.306 (0.143) µkat L^–1
  Glucose: 4.71 (0.54) mmol L^–1
  Phosphate: 1.00 (0.21) mmol L^–1
  Potassium: 4.07 (0.20) mmol L^–1
  Sodium: 140.2 (2.1) mmol L^–1
  Urea: 4.15 (1.35) mmol L^–1
405 mg fasted, 24 h
  ALP: 0.958 (0.139) µkat L^–1
  ALT: 0.338 (0.119) µkat L^–1
  AST: 0.363 (0.077) µkat L^–1
  Albumin: 43.7 (2.3) g L^–1
  Bilirubin: 14.9 (2.3) µmol L^–1
  CRP: 1.17 (1.28) mg L^–1
  Calcium: 2.39 (0.06) mmol L^–1
  Creatinine: 86.2 (14.7) µmol L^–1
  GGT: 0.298 (0.146) µkat L^–1
  Glucose: 4.77 (0.30) mmol L^–1
  Phosphate: 1.07 (0.11) mmol L^–1
  Potassium: 4.42 (0.31) mmol L^–1
  Sodium: 139.2 (1.0) mmol L^–1
  Urea: 4.55 (1.01) mmol L^–1
405 mg fasted, 48 h
  ALP: 0.947 (0.186) µkat L^–1
  ALT: 0.351 (0.097) µkat L^–1
  AST: 0.366 (0.075) µkat L^–1
  Albumin: 44.2 (2.7) g L^–1
  Bilirubin: 13.4 (2.1) µmol L^–1
  CRP: 1.19 (1.17) mg L^–1
  Calcium: 2.40 (0.06) mmol L^–1
  Creatinine: 81.1 (13.0) µmol L^–1
  GGT: 0.290 (0.133) µkat L^–1
  Glucose: 4.88 (0.35) mmol L^–1
  Phosphate: 1.06 (0.15) mmol L^–1
  Potassium: 4.33 (0.33) mmol L^–1
  Sodium: 139.6 (1.0) mmol L^–1
  Urea: 4.68 (1.07) mmol L^–1
405 mg fasted, follow up
  ALP: 1.037 (0.190) µkat L^–1
  ALT: 0.346 (0.071) µkat L^–1
  AST: 0.398 (0.062) µkat L^–1
  Albumin: 46.6 (2.7) g L^–1
  Bilirubin: 13.2 (3.1) µmol L^–1
  CRP: 1.17 (0.86) mg L^–1
  Calcium: 2.43 (0.10) mmol L^–1
  Creatinine: 81.1 (12.2) µmol L^–1
  GFR: 104 (12) mL min^–1 1.73m^–2
  GGT: 0.298 (0.137) µkat L^–1
  Glucose: 4.63 (0.39) mmol L^–1
  Phosphate: 1.12 (0.17) mmol L^–1
  Potassium: 4.39 (0.18) mmol L^–1
  Sodium: 141.5 (2.6) mmol L^–1
  Urea: 3.87 (0.96) mmol L^–1
Except serum uric acid at 135 mg or 405 mg
  changes in clinical chemistry, haematology or urinary parameters: no systemic or dose‐related changes
